Measurements as given in ChEMBL document CHEMBL1121935, “Syntheses and activities of antioxidant derivatives of retinoic acids” (1982).

Experiments:
Assay type in all cases: functional, Cricetulus griseus
Conditions in all cases: Epithelial cell
Cricetinae gen. sp. [1] = assay: In vitro inhibitory activity tested for reverse keratinization of epithelial cells in hamster trachael organ assay at 10E-9 M concentration; (Activity culture/total culture 419/474)
Cricetinae gen. sp. [2] = assay: In vitro inhibitory activity tested for reverse keratinization of epithelial cells in hamster trachael organ assay at 10E-9 M concentration; (Activity culture/total culture 2/7)
Cricetinae gen. sp. [3] = assay: In vitro inhibitory activity tested for reverse keratinization of epithelial cells in hamster trachael organ assay at 10E-9 M concentration; (Activity culture/total culture 1/6)
Cricetinae gen. sp. [4] = assay: In vitro inhibitory activity tested for reverse keratinization of epithelial cells in hamster trachael organ assay at 10E-9 M concentration; (Activity culture/total culture 1/7)

Q: For CC1=C(/C=C/C(C)=C/C=C/C(C)=C/C(=O)O)C(C)(C)CCC1 [TRETINOIN], which inhibition at 0.001 µM (Cricetinae gen. sp. [1]) is on record?
A: 88.4%

Q: Which inhibition at 0.001 µM (Cricetinae gen. sp. [2]) does the source give for CCOc1ccc2c(c1)C(C)=CC(C)(C)N2C(=O)/C=C(C)/C=C/C=C(C)/C=C/C1=C(C)CCCC1(C)C here?
A: 28.6%

Q: With CC1=C(/C=C/C(C)=C/C=C/C(C)=C/C(=O)Oc2c(C)c(C)c3c(c2C)CC[C@@](C)(CCC[C@H](C)CCC[C@H](C)CCCC(C)C)O3)C(C)(C)CCC1 as the compound, how does the inhibition at 0.001 µM (Cricetinae gen. sp. [3]) read?
A: 16.7%

Q: Which inhibition at 0.001 µM (Cricetinae gen. sp. [4]) does the source give for CC1=C(/C=C/C(C)=C/C=C/C(C)=C/C(=O)Oc2ccc(O)cc2C(C)(C)C)C(C)(C)CCC1 here?
A: 14.3%

Q: For CC1=C(/C=C/C(C)=C/C=C/C(C)=C/C(=O)Oc2ccc(O)c(C(C)(C)C)c2)C(C)(C)CCC1, which inhibition at 0.001 µM (Cricetinae gen. sp. [3]) is on record?
A: 16.7%
